In ChEMBL document CHEMBL5724914, “Linking interpersonal differences in gut microbiota composition and drug biotransformation activity” (2024):

Key:
[1] = (§1) The drug is tested on Z-029 corresponding to rat gut metagenome with ENA study accession number: PRJEB37062 and ENA sample accession number: ERS12561828 for biotransformation under anaerobic condition. The drug concentrations were measured over 9 timepoints collected between 0 and 24 hours of incubation by liquid-chromatography-coupled mass spectrometry (LC–MS); settings: 2 µM
[2] = as §1, with “Z-014” for “Z-029”, “ERS12561814” for “ERS12561828”; settings: 2 µM
[3] = as §1, with “on Z-011” for “on Z-029”, “to mouse” for “to rat”, “number: ERS12561811” for “number: ERS12561828”; settings: 2 µM
[4] = as §1, with “Z-008” for “Z-029”, “to” for “to rat gut”, “ERS12561808” for “ERS12561828”; settings: 2 µM
[5] = as §1, with “on Z-006” for “on Z-029”, “to mouse” for “to rat”, “number: ERS12561806” for “number: ERS12561828”; settings: 2 µM
[6] = as §1, with “on Z-002” for “on Z-029”, “to rabbit” for “to rat”, “number: ERS12561802” for “number: ERS12561828”; settings: 2 µM
[7] = as §1, with “on WLS-220” for “on Z-029”, “to human” for “to rat”, “number: ERS12561769” for “number: ERS12561828”; settings: 2 µM
[8] = as §1, with “on WLS-170” for “on Z-029”, “to human” for “to rat”, “number: ERS12561762” for “number: ERS12561828”; settings: 2 µM
[9] = as §1, with “on WLS-069” for “on Z-029”, “to human” for “to rat”, “number: ERS12561748” for “number: ERS12561828”; settings: 2 µM
[10] = as §1, with “on WLS-039” for “on Z-029”, “to human” for “to rat”, “number: ERS12561746” for “number: ERS12561828”; settings: 2 µM
[11] = as §1, with “on WLS-027” for “on Z-029”, “to human” for “to rat”, “number: ERS12561744” for “number: ERS12561828”; settings: 2 µM
[12] = human gut metagenome, 24 h, 2 µM
[13] = human gut metagenome, 24 h, 2 µM; remark: listed apart in the source
[14] = human gut metagenome, 24 h, 2 µM; remark: listed apart in the source
[15] = human gut metagenome, 24 h, 2 µM; remark: listed apart in the source
[16] = human gut metagenome, 24 h, 2 µM; remark: listed apart in the source
[17] = human gut metagenome, 24 h, 2 µM; remark: listed apart in the source
[18] = human gut metagenome, 24 h, 2 µM; remark: listed apart in the source
[19] = human gut metagenome, 24 h, 2 µM; remark: listed apart in the source
[20] = human gut metagenome, 24 h, 2 µM; remark: listed apart in the source
Also: call rule not given here.

| Structure (SMILES) | Bacterial Biotransformation [1] | Bacterial Biotransformation [2] | Bacterial Biotransformation [3] | Bacterial Biotransformation [4] | Bacterial Biotransformation [5] | Bacterial Biotransformation [6] | Bacterial Biotransformation [7] | Bacterial Biotransformation [8] | Bacterial Biotransformation [9] | Bacterial Biotransformation [10] | Bacterial Biotransformation [11] | Bacterial Biotransformation [12] | Bacterial Biotransformation [13] | Bacterial Biotransformation [14] | Bacterial Biotransformation [15] | Bacterial Biotransformation [16] | Bacterial Biotransformation [17] | Bacterial Biotransformation [18] | Bacterial Biotransformation [19] | Bacterial Biotransformation [20] |
| --- | --- | --- | --- | --- | --- | --- | --- | --- | --- | --- | --- | --- | --- | --- | --- | --- | --- | --- | --- | --- |
| C[C@@H]1C[C@H]2[C@@H]3CCC4=CC(=O)C=C[C@]4(C)[C@@]3(F)[C@@H](O)C[C@]2(C)[C@@]1(O)C(=O)CO [DEXAMETHASONE] | Compound NOT metabolized | Compound NOT metabolized | Compound NOT metabolized | Compound NOT metabolized | Compound NOT metabolized | Compound metabolized | Compound NOT metabolized | Compound NOT metabolized | Compound NOT metabolized | Compound NOT metabolized | Compound NOT metabolized | Compound NOT metabolized | Compound NOT metabolized | Compound NOT metabolized | Compound NOT metabolized | Compound NOT metabolized | Compound NOT metabolized | Compound NOT metabolized | Compound NOT metabolized | Compound NOT metabolized |
| O=C(Nc1ccccc1)OCC(CN1CCCCC1)OC(=O)Nc1ccccc1 (stereo not given) [DIPERODON] | Compound NOT metabolized | Compound NOT metabolized | Compound NOT metabolized | Compound NOT metabolized | Compound NOT metabolized | Compound NOT metabolized | Compound metabolized | Compound metabolized | Compound metabolized | Compound NOT metabolized | Compound metabolized | Compound NOT metabolized | Compound metabolized | Compound metabolized | Compound NOT metabolized | Compound NOT metabolized | Compound metabolized | Compound NOT metabolized | Compound metabolized | Compound NOT metabolized |
| CC(C)N(CCC(C(N)=O)(c1ccccc1)c1ccccn1)C(C)C.O=P(O)(O)O (stereo not given) [DISOPYRAMIDE PHOSPHATE] | Compound NOT metabolized | Compound NOT metabolized | Compound NOT metabolized | Compound NOT metabolized | Compound NOT metabolized | Compound NOT metabolized | Compound NOT metabolized | Compound NOT metabolized | Compound NOT metabolized | Compound NOT metabolized | Compound NOT metabolized | Compound NOT metabolized | Compound NOT metabolized | Compound NOT metabolized | Compound NOT metabolized | Compound NOT metabolized | Compound metabolized | Compound NOT metabolized | Compound metabolized | Compound metabolized |
| C[C@@H](CO)NC(=O)[C@@H]1C=C2c3cccc4[nH]cc(c34)C[C@H]2N(C)C1.O=C(O)/C=C\C(=O)O [ERGONOVINE MALEATE] | Compound NOT metabolized | Compound NOT metabolized | Compound NOT metabolized | Compound NOT metabolized | Compound NOT metabolized | Compound NOT metabolized | Compound NOT metabolized | Compound metabolized | Compound metabolized | Compound metabolized | Compound metabolized | Compound NOT metabolized | Compound metabolized | Compound NOT metabolized | Compound metabolized | Compound NOT metabolized | Compound metabolized | Compound NOT metabolized | Compound metabolized | Compound NOT metabolized |
| CCN(CC)C(C)CN1c2ccccc2Sc2ccccc21 (stereo not given) [ETHOPROPAZINE] | Compound NOT metabolized | Compound NOT metabolized | Compound NOT metabolized | Compound NOT metabolized | Compound NOT metabolized | Compound metabolized | Compound metabolized | Compound metabolized | Compound metabolized | Compound metabolized | Compound metabolized | Compound metabolized | Compound metabolized | Compound metabolized | Compound metabolized | Compound metabolized | Compound metabolized | Compound NOT metabolized | Compound metabolized | Compound metabolized |
| Cc1nc(-c2ccc(OCC(C)C)c(C#N)c2)sc1C(=O)O [FEBUXOSTAT] | Compound NOT metabolized | Compound NOT metabolized | Compound NOT metabolized | Compound NOT metabolized | Compound NOT metabolized | Compound metabolized | Compound metabolized | Compound metabolized | Compound metabolized | Compound metabolized | Compound metabolized | Compound metabolized | Compound metabolized | Compound metabolized | Compound NOT metabolized | Compound metabolized | Compound metabolized | Compound metabolized | Compound metabolized | Compound metabolized |
| CC(C)(C(=O)O)c1ccc(C(O)CCCN2CCC(C(O)(c3ccccc3)c3ccccc3)CC2)cc1 (stereo not given) [FEXOFENADINE] | Compound NOT metabolized | Compound NOT metabolized | Compound NOT metabolized | Compound NOT metabolized | Compound NOT metabolized | Compound metabolized | Compound NOT metabolized | Compound NOT metabolized | Compound NOT metabolized | Compound NOT metabolized | Compound NOT metabolized | Compound NOT metabolized | Compound NOT metabolized | Compound NOT metabolized | Compound NOT metabolized | Compound NOT metabolized | Compound NOT metabolized | Compound NOT metabolized | Compound NOT metabolized | Compound NOT metabolized |
